Measurements published in EP3638219B1, “COMPOSITION COMPRISING TERPINENE-4-OL FOR THE TREATMENT OF DEMODICOSIS” (priority 2017, dated 2018).

Key:
demodex = settings: components of TTO; WO06119174 A1 and WO09032773 A2; cited from earlier work
[1] = Physical stability of terpinen-4-ol in aqueous media (phase separation, clarity); type: physicochemical
Procedure: The compositions according to the invention are physically stable, i.e. clear, transparent and without precipitates, and substantially retain the initial content of the initial ingredient.
For example, on a lab scale, terpinen-4-ol and a mixture of PPG-26 buteth-26 (b2), PEG-40 hydrogenated castor oil (b3) and trideceth-9 (b4) were mixed in water and stirred for about 30 minutes. Cocamidopropyl betaine was then added and a clear solution was obtained, which was verified as stable.

Row | SMILES | activity against demodex in vitro (demodex) | behaviour in aqueous media ([1]; concentrations below 2% in weight/weight of the composition, in the presence of commonly used emulsifiers and surfactants) | behaviour in aqueous media ([1]; in the presence of Tween 20 in a weight ratio to terpinen-4-ol up to 5:1)
1 | C=C(C)C1CC=C(C)C(=O)C1 (stereo not shown) [carvone, reference compound] | active | – | –
2 | CC1=CCC(O)(C(C)C)CC1 (stereo not shown) [terpinen-4-ol] | active | tends to separate from aqueous media | two-phase system
